Data as given in US20130157953A1, “TREATMENT OF CARDIAC CONDITIONS” (Zealand Pharma A/S, priority 2010, published 2013).

System: isolated working hearts from control and insulin-resistant JCR:LA-cp rats
Assay: Inotropic effect and energy state in isolated working heart model
Design: species or system rat
Settings: compared with vehicle perfused hearts
Experimental: Following perfusions, high energy phosphate nucleotide concentrations were measured by high performance liquid chromatography (HPLC) (Ally, A and Park, G. Rapid determination of creatine, phosphocreatine, purine bases and nucleotides (ATP, ADP, AMP, GTP, GDP) in heart biopsies by gradient ion-pair reversed-phase liquid chromatography. Journal of Chromatography. 1992; 575: 19-27).

In the case of “H-HSQGTFTSDYSKYLDRARADDFVAWLKST-NH2 [Compound 12]”, the “energetic state of the hearts” value is reported as “not significantly different from vehicle perfused hearts”.
